Laboratory results reported in patent publication US20240208954A1, “OXADIAZOLE COMPOUND, PREPARATION METHOD THEREFOR, PHARMACEUTICAL COMPOSITION AND USE THEREOF” (SHANGHAI INSTITUTE OF MATERIA MEDICA, CHINESE ACADEMY OF …, priority 2020, published 2024).
Several values for one entry are separate records, joined by “and”; a condition that tells them apart may be missing. Identical values can stand only once. Entries after “also recorded” stand apart in the source; their conditions may differ. Like-named read-outs stand apart in the source and are kept apart here.

Legend:
[1] = tested on: MCD-HFD induced NASH model; experiment: Pharmacological activity test in MCD-HFD induced NASH model; type: in vivo, C57BL/6 mice
Protocol: Male C57BL/6 mice were fed with MCD-HFD diet to induce the NASH model, and 4 weeks after modeling, the mice were randomly divided into […]: normal diet control group (Control, n=9), model control group (Model, n=10), positive compound BAF312 group (0.3 mg/kg, n=10), low dose group (0.3 mg/kg, n=10), medium dose group (3 mg/kg, n=10), and high dose group (10 mg/kg, n=10), administered by gavage in a volume of 5 mL/kg once a day. The animals were monitored for food intake and body weight during administration; 4 weeks after administration, the mice were sacrificed by dislocation after blood was taken via the posterior ophthalmic plexus, livers and spleens were weighed, part the liver was fixed in 4% paraformaldehyde, and all tissues and serum were stored at −80° C.

[2] = tested on: dextran sodium sulfate (DSS)-induced IBD model; experiment: Pharmacological activity test in DSS-induced IBD model; type: in vivo, mice
Protocol: The mice were randomly divided into […]: normal control group (Control,n=5), model control group (Model,n=11), positive compound BAF312 group (0.3 mg/kg,n=10), low dose group (0.03 mg/kg,n=10), medium dose group (0.3 mg/kg,n=10), high dose group (3 mg/kg, n=10), and each group was administered by gavage in a volume of 5 mL/kg once a day. DSS with an average molecular weight of 36000˜50000 Da was dissolved in drinking water to make 2% DSS solution, and the mice in the modeling group were allowed to drink it freely for 6 days, while the drug administration treatments were carried out simultaneously. The body weight, fecal hardness and occult blood of mice in each group were observed every day, and the scores of each index were summed to obtain the disease activity index of each animal. After 6 days of completion of modeling and drug administration, the modeling reagents were withdrawn for a 1-day remission period, and the mice were sacrificed by dislocation after blood was taken via the posterior ophthalmic plexus. Colon tissue and spleen were measured for length or weighed, part of the colon was fixed in 4% paraformaldehyde, and all tissues and serum were stored at −80° C.

[3] = Preliminary assessment of pharmacokinetics in mice; type: in vivo, CD-1 mice; settings: 20 mg/kg
Protocol: Dosing Regimen 9 CD-1 mice, male, weighing 20-26 g, were randomly divided into 3 groups with 3 mice in each group. The test compounds were administered intragastric, intravenously or intraperitoneally according to the following protocol. The mice were fasted for 12 h before the test and drank water freely. Food was consumed uniformly 2 h after administration. [table] The intragastric administration solution was prepared with DMSO/0.5% HPMC(5/95, v/v) to the final concentration. Intravenous and intraperitoneal administration solution was formulated with DMSO/PEG300/EtOH/NaCl(5/40/5/50, v/v/v). The sample of the administration solution was left (50 μL of the solution was mixed with 50 μL of DMSO before and after the administration, respectively) for test. The drug was given according to the above dose, the time of administration was recorded, and 20 μL of blood was taken from the femoral plexus of mice at the above set time points and placed in heparinized tubes. The blood was immediately centrifuged at 11000 rpm for 5 min. 10 μL of plasma was immediately and accurately sucked into a centrifuge tube prefilled with 100 μL of PK-IS solution (prepared with methanol: acetonitrile (1:1,v/v)), well mixed, and freezed at −20° C. for test.

[4] = high-dose group (10 mg/kg), gavage once a day, 4 weeks

CC(C)Oc1ccc(-c2nc(-c3ccc(CN4CC(C(=O)O)C4)c4ccccc34)no2)cc1C#N.Cl [Compound A1, 1-((4-(5-(3-cyano-4-isopropoxyphenyl)-1,2,4-oxadiazol-3-yl)naphthalen-1-yl)methyl) azetidine-3-carboxylic acid hydrochloric acid]
hepatic lipid accumulation as well as inflammatory infiltration ([1]; FIG. 10 legend: at high/medium/low doses): alleviated | hepatic lipid accumulation and inflammatory infiltration ([1]; H&E-stained liver sections, high-dose (10 mg/kg)): effective in alleviating | body weight ([1]; gavage once a day, 4 weeks): without affecting | TG accumulation in the liver ([1]; high-dose group (10 mg/kg)): significantly alleviating | serum ALT levels [1, 4]: significantly reduced | serum AST levels [1, 4]: significantly reduced | expression levels of fibrosis-related genes (Asma, Tgfb, Col1a1) ([1]; high/medium-dose (10/3 mg/kg)): significantly downregulated; also recorded: downregulates | hydroxyproline levels in the liver ([1]; high/medium-dose (10/3 mg/kg), to different degrees): effective in alleviating; also recorded: alleviated | mRNA expression of liver inflammation-related genes (Tnfa, Il1b, Nlrp3, Ccl2) ([1]; high/medium/low doses (10/3/0.3 mg/kg), to different degrees): significantly downregulated | impaired crypt and inflammatory infiltration in colon sites ([2]; H&E-stained colon sections, high/medium doses (3/0.3 mg/kg)): effectively improve | overall effect in the IBD model ([2]; concluding statement): significant anti-inflammatory as well as pathological ameliorating effects | weight of the spleen ([2]; high/medium/low doses): without affecting | disease process (weight change, stool consistency, rectal bleeding, disease activity index) ([2]; high/medium/low doses (3/0.3/0.03 mg/kg), gavage once a day, to different degrees): effective in alleviating; also recorded: alleviated | shorten of colon length ([2]; high/medium/low doses (3/0.3/0.03 mg/kg), to different degrees): effective in alleviating | Concentration of A1 Drug in Plasma of Mice ([3]; intraperitoneal injection 20 mg/kg, 0.05 h, individual animals 4-6): 1105 ng/mL and 473 ng/mL and 715 ng/mL | Concentration of A1 Drug in Plasma of Mice ([3]; intraperitoneal injection 20 mg/kg, 0.25 h, individual animals 4-6): 827 ng/mL and 1507 ng/mL | Concentration of A1 Drug in Plasma of Mice ([3]; intraperitoneal injection 20 mg/kg, 0.75 h, individual animals 4-6): 1206 ng/mL and 1534 ng/mL and 3318 ng/mL | Concentration of A1 Drug in Plasma of Mice ([3]; intraperitoneal injection 20 mg/kg, 2.00 h, individual animals 4-6): 516 ng/mL and 1443 ng/mL and 4405 ng/mL | Concentration of A1 Drug in Plasma of Mice ([3]; intraperitoneal injection 20 mg/kg, 4.00 h, individual animals 4-6): 376 ng/mL and 201 ng/mL and 535 ng/mL | Concentration of A1 Drug in Plasma of Mice ([3]; intraperitoneal injection 20 mg/kg, 8.00 h, individual animals 4-6): 273 ng/mL and 78.2 ng/mL and 119 ng/mL | Concentration of A1 Drug in Plasma of Mice ([3]; intraperitoneal injection 20 mg/kg, 24.0 h, individual animals 4-6): 86.9 ng/mL and 26.5 ng/mL and 35.0 ng/mL | concentration at 0.25 h ([3]; male, CD-1, mouse, plasma, intraperitoneal, title: intraperitoneal 20 mg/kg, 0.25 h, mean, read-out: Concentration of A1 Drug in Plasma of Mice): 1740 ng/mL | concentration at 0.5 h ([3]; male, CD-1, mouse, plasma, intraperitoneal, title: intraperitoneal 20 mg/kg, 0.50 h, mean, read-out: Concentration of A1 Drug in Plasma of Mice): 2160 ng/mL | concentration at 1 h ([3]; male, CD-1, mouse, plasma, intraperitoneal, title: intraperitoneal 20 mg/kg, 1.00 h, mean, read-out: Concentration of A1 Drug in Plasma of Mice): 2600 ng/mL | concentration at 2 h ([3]; male, CD-1, mouse, plasma, intraperitoneal, title: intraperitoneal 20 mg/kg, 2.00 h, mean, read-out: Concentration of A1 Drug in Plasma of Mice): 1180 ng/mL | concentration at 4 h ([3]; male, CD-1, mouse, plasma, intraperitoneal, title: intraperitoneal 20 mg/kg, 4.00 h, mean, read-out: Concentration of A1 Drug in Plasma of Mice): 142 ng/mL | concentration at 8 h ([3]; male, CD-1, mouse, plasma, intraperitoneal, title: intraperitoneal 20 mg/kg, 8.00 h, mean, read-out: Concentration of A1 Drug in Plasma of Mice): 24.6 ng/mL | concentration at 24 h ([3]; male, CD-1, mouse, plasma, intraperitoneal, title: intraperitoneal 20 mg/kg, 24.0 h, individual animals 1-3, read-out: Concentration of A1 Drug in Plasma of Mice): 4.8 ng/mL | concentration at 24 h ([3]; male, CD-1, mouse, plasma, intraperitoneal, title: intraperitoneal 20 mg/kg, 24.0 h, mean, read-out: Concentration of A1 Drug in Plasma of Mice): 4.13 ng/mL | concentration at 0.05 h ([3]; male, CD-1, mouse, plasma, ip, intraperitoneal injection 20 mg/kg, 0.05 h, mean, read-out: Concentration of A1 Drug in Plasma of Mice): 764 ng/mL | concentration at 0.25 h ([3]; male, CD-1, mouse, plasma, ip, intraperitoneal injection 20 mg/kg, 0.25 h, individual animals 4-6, read-out: Concentration of A1 Drug in Plasma of Mice): 1170 ng/mL | concentration at 0.25 h ([3]; male, CD-1, mouse, plasma, ip, intraperitoneal injection 20 mg/kg, 0.25 h, mean, read-out: Concentration of A1 Drug in Plasma of Mice): 1170 ng/mL
